Measurements reported in patent US20250312338A1, “TREATMENT OF NEUROLOGICAL DISORDERS” (Praxis Precision Medicines, Inc., priority 2022, published 2025).
Converted amounts (≈) assume the structure as drawn. “Also recorded” adds a separate entry of the source. Where two headings read alike, the source gives them in different places.

Experiments:
[1] = tested on: healthy participants; test: Phase 1 28-day trial (Part A 90 mg; Part B OXC + 120 mg), safety and tolerability; type: in vivo, human
Description: (§2) This was a 2-part randomized, placebo-controlled Phase 1 trial in healthy participants aged 18-55 years. […] PD effects were examined on quantitative EEG (qEEG; resting and vigilant conditions) and stimulated EEG using auditory steady state response (ASSR). A total of 48 participants were enrolled; Part A, n=30; Part B, n=18.

[2] = in vivo
Description: as §2

[3] = Open-label study in DEE patients, pharmacokinetics (preliminary data); type: in vivo, human
Description: The purpose of this study is to evaluate the safety and tolerability of Compound 1, to assess the effect of Compound 1 on the frequency of motor seizures, and to characterize the pharmacokinetics (PK) of oral suspension Compound 1 in patients with developmental and epileptic encephalopathies (DEE).
This is an open-label proof of concept study with 3 cohorts of DEE patients (SCN2A, SCN8A, and Tuberous Sclerosis Complex (TSC)) between 2 years old and 17 years old. There will be an 8-week screening period followed by a 16-week treatment period comprised of 8-week dose optimization period and 8-week maintenance period, and a 4-week safety follow-up period or roll-over into LTE. The rationale for 16-week treatment period is based on the current knowledge of Compound 1 pharmacokinetics, which is predicted to potentially take about 6 weeks to achieve 90% steady state. The 8-week dose optimization period allows for adjusting concomitant SCBs and the additional 8 weeks will allow for evaluation of tolerability and efficacy signal during the maintenance period.
Dosing will be guided by preclinical data (targeting concentration between EC50 and EC90 from MES model) and modeling from adult PK data, and duration of dose optimization phase will be predicated on adult PK data. During the dose optimization period, the dose adjustment will be as follows. […]

[4] = in vivo; conditions: male, CD-1, mouse
Protocol: (§3) Male CD-1 mice, 6-weeks old, were obtained from Vital River (Beijing, China). The average body weight was 25-35 g at the time the experiments were carried out. The mice were housed in groups of 3-5 under controlled conditions (temperature: 20-26° C.; humidity: 40-70%; air exchange rate: 10-15 cycles/hour; 12:12 light-dark cycle with lights on at 5:00 a.m.). Food and water were available ad libitum. The mice were acclimated to these conditions for 6 days before the start of the studies.
(§4) Dosing solutions were prepared on each experiment day. […] All solutions were protected from light. Samples from dosing solutions were stored at 4° C. Both compound and vehicle were dosed at 10 ml/kg.
(§5) The sLMA test was carried out over two days. 5 of 10 mice from each treatment group were tested on each day. All animals were marked on the tail with a permanent marker and weighed. Mice were randomly assigned into one of the four treatment groups. Animals were acclimated to the test room at least 30 minutes before the start of the experiment.
(§6) Possible side effects, such as overt sedation, were recorded just before the start of the sLMA test.
(§7) Each mouse was automatically tracked with overhead cameras using a 1-minute sampling window in an isolated chamber. Spontaneous locomotor activity was then analyzed offline using the Animal Behavior Video Tracking Analysis System (Ji Liang Software Technology Co., Ltd., Shanghai, China).
(§8) Locomotor status was defined as >2 mm of movement in every 200 ms (Frame-rate recorded was 20 frames/second. Locomotor status was identified in every 4 frame-to-frame interval. The accumulated shift of tracking spots that exceeded 2 mm in every 4 frame intervals was identified as a locomotor epoch). Traveling distance was calculated automatically from all the locomotion epochs and analyzed.
(§9) All mice were anesthetized with CO2. Then, terminal plasma and brain tissue samples were collected from animals in the drug treatment groups. 500 μL whole blood was collected via cardiac puncture and placed in tubes with 10 μL EDTAK2. The tubes were then placed in wet ice until centrifuged at 2000 g for 5 minutes at 4° C. The supernatant plasma was pipetted into Eppendorf tubes.
(§10) Data are presented as mean±s.e.m., and p<0.05 was regarded as statistically significant.
(§11) Calculating TD50 and TC50 values Dose-response and concentration-response curves for plasma and brain were fitted for each end-point using GraphPad Prism. From these fitted curves, TD50 and TC50 values were calculated.
(§12) Compound 1 and CBZ were prepared individually in 35% HPBCD. […] All solutions were dosed at 10 mL/kg. Just before the start of the sLMA test, possible side effects such as overt sedation were recorde.

[5] = Phase 1 single/multiple ascending dose and food effect trial, pharmacokinetics; type: in vivo, human; conditions: for Tmax: human, plasma
Protocol: (§1) This was a 3-part Phase 1 clinical trial in healthy participants aged 18-55 years. Parts A and B were randomized, placebo-controlled and evaluated the effects of single (2.5-150 mg) and multiple (30-120 mg, 14 days QD (every day)) ascending oral doses of Compound 1, respectively. Part C was an open-label, randomized, crossover design evaluating the PK of a single oral dose (90 mg) in fasted and fed states. In Parts A (n=64) and B (n=32), participants were randomized 3:1 to Compound 1 or placebo (n=8/cohort). In Part C (n=16), participants were randomized 1:1 to one of two treatment sequences receiving a single dose of 90 mg Compound 1 in the fed (following a high-fat/high calorie meal) or fasted (>10 hours after the last, and 4 hours before the next, meal) state.

[6] = Phase 1 28-day trial (Part A 90 mg; Part B OXC + 120 mg), pharmacokinetics
Description: as §2

[7] = tested on: male CD-1 mice; test: Spontaneous locomotor activity (sLMA) test
Protocol: as §3, §4, §5, §6, §7, §8, §9, §10, §11, §12

[8] = tested on: healthy participants; test: Phase 1 single/multiple ascending dose and food effect trial, safety and tolerability; type: in vivo, human; conditions: whole trial
Protocol: as §1

[9] = Half-life of Compound 1 as stated in dosing guidance of Example 13; conditions: human, in vivo
[10] = tested on: MES-induced seizures in male CD-1 mice; test: Maximal electroshock seizure (MES) test; type: in vivo, mouse
Protocol: Food and water were available ad libitum.
VPA was prepared in saline (Vehicle 1). All solutions were protected from light. All compounds and vehicles were dosed at 10 ml/kg.
The MES test was carried out over two days with 6 of 12 mice from each treatment group being tested on each day. Mice were brought to the test room at least one hour before the start of the experiment.
A Grass S88x (Grass Technologies of Astro-Med, Inc., West Warwick, RI) Stimulus Isolation Unit (A385, WPI Inc., USA) was set to deliver a 50 mA square-wave stimulus, with a 0.8 second duration, a pulse width of 10 msec, and a frequency of 50 Hz. A pair of custom stainless steel electrodes were soaked in 0.2% Agar, and then the subject received bilateral transauricular stimulation through ear-clip electrodes. During the stimulation, mice were manually restrained. They were then released into the observation cage for convulsion observation for 60 seconds immediately after stimulation. Each mouse was observed continuously by individuals blinded to treatment conditions and results were recorded.
Anti-seizure assessment endpoints were: (1) latency of hindlimb tonic flexion; (2) latency of hindlimb tonic extension; (3) total #hindlimb tonic flexions; (4) total #hindlimb tonic extensions; (5) latency to death; and (6) mortality rate
From these fitted curves, ED50 and EC50 values were calculated.

[11] = target: T1, human NaV1.6 (Homo sapiens, UniProt Q9UQD0); test: Peak INa use dependent block (UDB-10 Hz), PatchXpress patch clamp; type: cell-based; conditions: hNaV1.6
T1 construct: HEK-293 cell lines stably expressing either human NaV1.6 (NP_055006); expressed in transfected cells
T1 sequence (Q9UQD0 whole entry): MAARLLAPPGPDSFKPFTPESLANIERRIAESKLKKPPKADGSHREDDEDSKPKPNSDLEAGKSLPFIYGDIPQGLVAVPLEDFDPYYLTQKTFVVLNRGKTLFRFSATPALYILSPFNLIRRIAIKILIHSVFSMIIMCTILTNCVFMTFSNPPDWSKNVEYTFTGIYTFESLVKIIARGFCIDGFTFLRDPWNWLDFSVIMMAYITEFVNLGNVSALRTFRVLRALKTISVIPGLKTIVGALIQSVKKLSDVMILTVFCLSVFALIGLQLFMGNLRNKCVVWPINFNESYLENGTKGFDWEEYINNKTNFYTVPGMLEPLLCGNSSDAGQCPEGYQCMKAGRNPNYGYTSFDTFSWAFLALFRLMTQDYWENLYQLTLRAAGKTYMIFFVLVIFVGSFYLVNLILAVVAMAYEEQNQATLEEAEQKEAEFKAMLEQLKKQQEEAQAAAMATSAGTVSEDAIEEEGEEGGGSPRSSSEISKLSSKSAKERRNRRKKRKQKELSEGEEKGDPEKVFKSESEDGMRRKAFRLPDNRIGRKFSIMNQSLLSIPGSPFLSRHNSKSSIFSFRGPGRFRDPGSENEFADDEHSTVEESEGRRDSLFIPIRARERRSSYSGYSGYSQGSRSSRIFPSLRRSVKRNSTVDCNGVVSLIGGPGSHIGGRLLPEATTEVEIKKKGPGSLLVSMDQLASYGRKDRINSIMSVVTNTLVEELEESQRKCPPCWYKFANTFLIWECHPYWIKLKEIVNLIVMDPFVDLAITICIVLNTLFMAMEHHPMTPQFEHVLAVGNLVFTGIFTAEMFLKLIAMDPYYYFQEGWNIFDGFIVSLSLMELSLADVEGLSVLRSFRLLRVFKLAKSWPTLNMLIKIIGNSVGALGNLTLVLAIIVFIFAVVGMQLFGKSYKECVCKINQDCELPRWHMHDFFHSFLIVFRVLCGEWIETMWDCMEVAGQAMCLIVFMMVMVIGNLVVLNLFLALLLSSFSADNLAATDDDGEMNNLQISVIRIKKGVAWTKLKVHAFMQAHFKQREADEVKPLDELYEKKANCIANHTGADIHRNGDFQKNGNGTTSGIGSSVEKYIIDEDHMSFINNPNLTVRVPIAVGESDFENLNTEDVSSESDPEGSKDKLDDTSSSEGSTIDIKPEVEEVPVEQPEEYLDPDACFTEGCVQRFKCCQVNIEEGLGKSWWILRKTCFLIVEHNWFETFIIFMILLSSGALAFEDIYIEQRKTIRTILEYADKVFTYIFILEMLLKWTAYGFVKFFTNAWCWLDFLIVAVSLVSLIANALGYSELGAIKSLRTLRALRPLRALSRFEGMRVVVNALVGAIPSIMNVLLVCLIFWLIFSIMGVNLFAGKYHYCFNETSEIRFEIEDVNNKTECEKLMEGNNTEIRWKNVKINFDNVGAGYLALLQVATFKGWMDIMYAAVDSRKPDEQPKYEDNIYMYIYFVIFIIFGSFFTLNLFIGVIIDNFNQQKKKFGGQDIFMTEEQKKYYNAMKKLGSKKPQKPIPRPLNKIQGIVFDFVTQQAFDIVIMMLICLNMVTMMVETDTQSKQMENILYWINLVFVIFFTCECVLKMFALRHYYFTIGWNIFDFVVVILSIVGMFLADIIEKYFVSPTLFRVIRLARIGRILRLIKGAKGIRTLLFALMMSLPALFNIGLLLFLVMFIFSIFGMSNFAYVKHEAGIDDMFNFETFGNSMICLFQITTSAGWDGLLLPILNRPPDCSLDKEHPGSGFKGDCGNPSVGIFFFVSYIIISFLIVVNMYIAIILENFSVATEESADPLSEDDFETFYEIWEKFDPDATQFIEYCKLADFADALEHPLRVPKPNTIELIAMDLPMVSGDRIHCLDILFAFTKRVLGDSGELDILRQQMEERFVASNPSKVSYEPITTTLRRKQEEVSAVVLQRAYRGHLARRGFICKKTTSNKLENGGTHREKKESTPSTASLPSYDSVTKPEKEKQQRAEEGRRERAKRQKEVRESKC

Structure (SMILES): NC(=O)N1c2ccccc2CC(=O)c2ccccc21 [Oxcarbazepine, reference compound]
- patients in whom TEAEs were observed ([1]; Part B, per arm): 75%
- exposure when administered concomitantly with Compound 1 vs alone [2]: similar

Structure (SMILES): CCOC(F)(F)c1nnc2cnc(-c3cnc(OCC(F)(F)F)c(F)c3)cn12 [Compound 1]
- approach to steady state ([3]; after 28 days of once daily dosing and auto-titration): approaches steady state
- Compound 1 exposures on Day 1 (after single dose) ([3]; first 12 DEE participants, preliminary): above therapeutic range; also recorded: above predicted therapeutic levels
- EC50 ([4]; plasma (free concentration), oral): 0.309 µM
- TEAEs mild or moderate ([1]; Part A): 100%
- TEAEs moderate in severity ([1]; Part A): 29%
- tolerability in healthy adults ([1]; Part A, 90 mg): well tolerated
- TEAEs mild in severity ([1]; Part A, 90 mg QD 28 days vs placebo, 35 TEAEs across 13 participants): 71%
- review of ALT/AST increases and rhabdomyolysis ([1]; Part B): did not identify a causal association
- increase in AUC, fed vs fasted ([5]; 90 mg single dose): 14%
- increase in Cmax, fed vs fasted ([5]; 90 mg single dose): 9%
- Tmax ([5]; oral, 90 mg, 90 mg single dose, fasted, read-out: tmax, fasted state): 2.5 h
- Tmax ([5]; oral, 90 mg, 90 mg single dose, fed, read-out: tmax, fed state): 4 h
- Tmax ([5]; po, healthy adults, read-out: time to observed maximum concentration (tmax)): 2 to 3 h
- exposure vs dose ([5]; over the evaluated dose range): increased dose proportionally
- increase in Compound 1 concentrations over the human-equivalent dose required for efficacy in preclinical MES models [6]: 13 fold
- approach to steady state ([6]; 90 mg for 28 days): approached steady state
- effect on locomotor function ([7]; 10 mg/kg): no effect
- total traveling distance in the 30-minute sLMA test ([7]; 20 and 40 mg/kg p.o.): significantly reduced; also recorded: reductions
- TC50 (free brain) Tolerability (sLMA) ([7]; free brain concentration): 69.7 nM
- TC50 in brain, free (sLMA) ([7]; free brain concentration): 69.7 nmol/L
- TC50 in plasma, free (sLMA) ([7]; free plasma concentration): 308.9 nmol/L
- TC50 in brain (sLMA) ([7]; total brain concentration): 1899 ng/g
- TC50 in plasma (sLMA) ([7]; total plasma concentration): 1553 ng/mL (≈ 3.81 µM)
- TEAEs that were mild [8]: > 92%
- half-life [9]: ~4 days

Structure (SMILES): Nc1nnc(-c2cccc(Cl)c2Cl)c(N)n1 [Lamotrigine]
- mice protected from MES-induced tonic hindlimb seizures ([10]; 10 mg/kg): eight of 12
- EC50 ([4]; in vivo): 20.5 µM
- use-dependent block of peak INa (in words) ([11]; stimulation frequency 10 Hz): not observed

Structure (SMILES): NC(=O)N1c2ccccc2C=Cc2ccccc21 [Carbamazepine]
- mice protected from MES-induced tonic hindlimb seizures ([10]; 30 mg/kg): all mice
- EC50 ([4]; in vivo): 19 µM
- use-dependent block of peak INa (in words) ([11]; frequency increased to 30 Hz or 50 Hz): could be observed
- use-dependent block of peak INa (in words) ([11]; stimulation frequency 10 Hz): not observed
- sLMA at the dose required for complete seizure prevention ([7]; mouse, in vivo): significant reduction

Structure (SMILES): NC(=O)O[C@@H](Cn1ncnn1)c1ccccc1Cl [Cenobamate]
- Ratio to Peak INa (TB) (TB / UDB-10 Hz) [11]: 2.3

Structure (SMILES): NC(=O)N1c2ccccc2CC(O)c2ccccc21 (stereo not shown) [10-Hydroxycarbamezapine]
- exposure when administered concomitantly with Compound 1 vs alone [2]: similar
